# In patent publication US20190292524A1, “METHODS FOR CANCER STEM CELL (CSC) EXPANSION” (TRANSGENEX NANOBIOTECH, INC., priority 2016, published 2019):
# System: MCF-7 cells
# Test: CD44+ CD24− CSC population in MCF-7 tumoroids by flow cytometry
# Assay type: cell-based, human
# Settings: regular growth medium supplemented with 50 μM cobalt chloride, first-generation MCF-7 tumoroids, day 6
# Method: We first plated MCF-7 cells in regular growth medium, consisting of RPMI-1640 supplemented with 10% fetal bovine serum (FBS) and 1× penicillin-streptomycin. The cells were plated at ^˜7,000 cells per scaffold in a 96-well cell culture plate. Fresh medium was added on the second day post-seeding and on day 6 post-seeding, the tumoroids were visualized using NucBlue® dye. After confirming the presence of healthy looking tumoroids, they were detached from the scaffold and processed for single cell suspensions using accutase:citrate solution (1:1 ratio). The single cell suspension was then counted for viability and stained with human anti-CD44-APC-cy7 and anti-CD24-APC. DAPI was used to differentiate the live cells within the single cell population and the CD44^+ CD24^− cell population was determined from the live cells using flow cytometry.
# We first grew first-generation tumoroids, as described before. The first-generation tumoroids were then processed for single-cell suspensions and plated at ^˜8,000 cells per scaffold in a 96-well cell culture plate. […]
# Because hypoxia appears to be required for the maintenance of CSCs, we wanted to test this in our 3D model using cobalt chloride, a known inducer of hypoxia. […] DAPI was used to differentiate the live cells within the single-cell population and the CD44^+ CD24^− cell population was determined using flow cytometry. […]
smiles,measurement,value
[Cl][Co][Cl] [cobalt chloride],change in percentage of CSCs,did not change the percentage of CSCs
